Consider 8 molecules from ChEMBL document CHEMBL3407397, “Effect of size and N-terminal residue characteristics on bacterial cell penetration and antibacterial activity of the proline-rich peptide Bac7” (J Med Chem, 2015).

For assay [1], the system named is Escherichia coli. The experiment in a line: Antimicrobial activity against delta-sbmA deletion mutant containing Escherichia coli BW25113 incubated for 18 hrs at 37 degC by broth microdilution method. It is filed as functional. The following applies: BW25113, 18 h.
Assay [2] has as its system Escherichia coli. Nature of the assay: Antimicrobial activity against Escherichia coli ATCC 25922 incubated for 18 hrs at 37 degC by broth microdilution method. It is filed as functional. The following applies: ATCC 25922, 18 h.
Assay [3] relates to Escherichia coli. The experiment in a line: Antimicrobial activity against O-antigen lacking LPS containing wild type Escherichia coli BW25113 incubated for 18 hrs at 37 degC by broth microdilution method. It counts as functional. The following applies: BW25113, 18 h.
In assay [4] the test system is Escherichia coli. The experiment in a line: Antimicrobial activity against delta-waaG deletion mutant containing Escherichia coli BW25113 incubated for 18 hrs at 37 degC by broth microdilution method. The following applies: BW25113, 18 h. It counts as functional.
For assay [5], the system named is Escherichia coli. The experiment in a line: Bacteriostatic activity against O-antigen lacking LPS containing wild type Escherichia coli BW25113 at 4 uM incubated for 3.5 hrs. It is filed as functional, organism-based.
The test system of assay [6] is Escherichia coli. The experiment in a line: Bacteriostatic activity against delta-waaG deletion mutant containing wild type Escherichia coli BW25113 at 4 uM incubated for 3.5 hrs. It is filed as functional, organism-based.
The subject of assay [7] is Escherichia coli. The experiment in a line: Antimicrobial activity against Escherichia coli HB101 incubated for 18 hrs at 37 degC by broth microdilution method. It is filed as functional. The following applies: HB101, 18 h.

≈ marks a conversion by molar mass, not a printed value. Calls of active or inactive are those of the source. The calls are words filed in the database; no cut-off is given here. Non-standard residues stand in square brackets, D forms with d. Residues, ends and D or L forms follow the SMILES beside them. Gly(N-(CH2)3-guanidino) = N=C(N)NCCCNCC(=O)O Where only a bound is given, the exact number is not on record here.

Turning to `CC[C@H](C)[C@H](NC(=O)CN(CCCNC(=N)N)C(=O)CNCCCNC(=N)N)C(=O)N[C@@H](CCCNC(=N)N)C(=O)N1CCC[C@H]1C(=O)N[C@@H](CCCNC(=N)N)C(=O)N1CCC[C@H]1C(=O)N1CCC[C@H]1C(=O)N[C@@H](CCCNC(=N)N)C(=O)N[C@@H](CC(C)C)C(=O)N1CCC[C@H]1C(=O)N[C@@H](CCCNC(=N)N)C(=O)N1CCC[C@H]1C(=O)N[C@@H](CCCNC(=N)N)C(=O)N1CCC[C@H]1C(=O)N[C@@H](CCCNC(=N)N)C(=O)N1CCC[C@H]1C(=O)N[C@@H](CC(C)C)C(=O)N1CCC[C@H]1C(=O)N[C@@H](Cc1ccc(O)cc1)C(=O)N1CCC[C@H]1C(=O)N[C@@H](CCCNC(=N)N)C(=O)N1CCC[C@H]1C(=O)O` (H-[Gly(N-(CH2)3-guanidino)][Gly(N-(CH2)3-guanidino)]IRPRPPRLPRPRPRPLPYPRP-OH), the MIC is 8 µM (≈ 23.2 µg/mL) in assay [1], 1 µM (≈ 2.9 µg/mL) in assay [2], 0.5 µM (≈ 1.45 µg/mL) in assay [3] and 0.5 µM (≈ 1.45 µg/mL) in assay [4].
In the case of H-IRPRPPRLPRPRPRPLPYPRP-OH, the result in assay [5] and in assay [6] was Active. For the same molecule, the MIC in assay [1] came to 32 µM; in assay [2], 8 µM; in assay [3], 8 µM; in assay [4] it was 4 µM.
For the molecule H-KKIRPRPPRLPRPRPRPLPYPRP-OH, the MIC in assay [1] was 16 µM; in assay [2] it was 4 µM; in assay [3], 4 µM; in assay [4] it was 2 µM.
Consider H-RRIRPRPPRLPRP-OH, for which the MIC in assay [2] is above 128 µM; in assay [7], 64 µM.
For H-RRIRPRPPRLPRPC-OH, the MIC was above 128 µM in assay [2] and 128 µM in assay [7].
The matching figures for H-RRIRPRPPRLPRPRP-OH: 32 µM and 16 µM.
The matching figures for H-RRIRPRPPRLPRPRPC-OH: 8 µM and 8 µM.
The matching figures for H-RRIRPRPPRLPRPRPR-OH: 0.5 µM and 0.5 µM.
